The results in this text go back to patent US11834433B2, “Compounds” (INFLAZOME LIMITED, priority 2018, dated 2023).

Counter-ions that a name gives are not always drawn. Some results are limits rather than exact numbers.

For the experiment, the system named is NLRP3. Kind of experiment: THP-1 cells pyroptosis assay (LPS + nigericin, resazurin read-out). As to conditions: Homo sapiens, 1 μg/ml LPS, 5 μM nigericin, NLRP3 inhibitory activity. The format is cell-based. As to the method:
THP-1 cells (ATCC #TIB-202) were grown in RPMI containing L-glutamine (Gibco #11835) supplemented with 1 mM sodium pyruvate (Sigma #S8636) and penicillin (100 units/ml)/streptomycin (0.1 mg/ml) (Sigma #P4333) in 10% Fetal Bovine Serum (FBS) (Sigma #F0804). The cells were routinely passaged and grown to confluency (˜10^6 cells/ml). On the day of the experiment, THP-1 cells were harvested and resuspended into RPMI medium (without FBS). The cells were then counted and viability (>90%) checked by Trypan blue (Sigma #T8154). Appropriate dilutions were made to give a concentration of 625,000 cells/ml. To this diluted cell solution was added LPS (Sigma #L4524) to give a 1 μg/ml Final Assay Concentration (FAC). 40 μl of the final preparation was aliquoted into each well of a 96-well plate. The plate thus prepared was used for compound screening. The following method step-by-step assay was followed for compound screening. • 1. Seed THP-1 cells (25,000 cells/well) containing 1.0 μg/ml LPS in 40 μl of RPMI medium (without FBS) in 96-well, black walled, clear bottom cell culture plates coated with poly-D-lysine (VWR #734-0317) • 2. Add 5 μl compound (8 points half-log dilution, with 10 μM top dose) or vehicle (DMSO 0.1% FAC) to the appropriate wells • 3. Incubate for 3 hrs at 37° C., 5% CO2 • 4. Add 5 μl nigericin (Sigma #N7143) (FAC 5 μM) to all wells • 5. Incubate for 1 hr at 37° C., 5% CO2 • 6. At the end of the incubation period, spin plates at 300×g for 3 mins and remove supernatant • 7. Then add 50 μl of resazurin (Sigma #R7017) (FAC 100 μM resazurin in RPMI medium without FBS) and incubate plates for a further 1-2 hrs at 37° C. and 5% CO2 • 8. Plates were read in an Envision reader at Ex 560 nm and Em 590 nm • 9. IC50 data is fitted to a non-linear regression equation (log inhibitor vs response-variable slope 4-parameters) [table]
`COC(C)(C)Cn1ccc(S(=O)(=O)NC(=O)Cc2c3c(cc4c2CCC4)CCC3)n1` [Example 4, 2-(1,2,3,5,6,7-Hexahydro-s-indacen-4-yl)-N-((1-(2-methoxy-2-methylpropyl)-1H-pyrazol-3-yl)sulfonyl)acetamide]: the IC50 (in general, the concentration that inhibits the measured activity by half) was at most 5 µM.

As for `COC1(c2cc(S(=O)(=O)NC(=O)Cc3c(-c4ccnc(C#N)c4)ccc4c3CCC4)nn2C(C)C)COC1` [Example 2, 2-(5-(2-Cyanopyridin-4-yl)-2,3-dihydro-1H-inden-4-yl)-N-((1-isopropyl-5-(3-methoxyoxetan-3-yl)-1H-pyrazol-3-yl)sulfonyl)acetamide, potassium Salt], the concentration for half-maximal inhibition (IC50) is at most 10 µM.

`COCC(C)(C)n1ccc(S(=O)(=O)NC(=O)Cc2c(-c3ccnc(OC)c3)cc(F)cc2C(C)C)n1` [Example 8]: the IC50 is at most 5 µM.

Regarding `COC1(c2cc(S(=O)(=O)NC(=O)Cc3c4c(cc5c3CCC5)CCC4)nn2C(C)C)COC1` [Example 1, 2-(1,2,3,5,6,7-Hexahydro-s-indacen-4-yl)-N-((1-isopropyl-5-(3-methoxyoxetan-3-yl)-1H-pyrazol-3-yl)sulfonyl)acetamide], the IC50 is at most 5 µM.

Consider `COC1(c2cc(S(=O)(=O)NC(=O)Cc3c4c(cc5c3CCC5)CCC4)nn2C2CC2)COC1` [Example 3, N-((1-Cyclopropyl-5-(3-methoxyoxetan-3-yl)-1H-pyrazol-3-yl)sulfonyl)-2-(1,2,3,5,6,7-hexahydro-s-indacen-4-yl)acetamide], for which the half-inhibitory concentration (IC50) is at most 5 µM.

As for `COc1cc(-c2cc(F)cc(C(C)C)c2CC(=O)NS(=O)(=O)c2ccn(C(C)(C)CO)n2)ccn1` [Example 9], the IC50 is at most 5 µM.

For the compound `COc1cc(-c2cc(F)cc(C(C)C)c2CC(=O)NS(=O)(=O)c2cnn(CC(C)(C)O)c2)ccn1` [Example 7], the IC50 was at most 5 µM.

In the case of `CC(C)c1cc(F)cc(C(C)C)c1CC(=O)NS(=O)(=O)c1ccn(C[C@@H](C)O)n1` [Example 6, (R)-2-(4-Fluoro-2,6-diisopropylphenyl)-N-((1-(2-hydroxypropyl)-1H-pyrazol-3-yl)sulfonyl)acetamide], the 50% inhibitory concentration (IC50) was at most 5 µM.

Regarding `COC1(c2cc(S(=O)(=O)NC(=O)Cc3c(C(C)C)cc(F)cc3C(C)C)nn2C(C)C)COC1` [Example 5, 2-(4-Fluoro-2,6-diisopropylphenyl)-N-((1-isopropyl-5-(3-methoxyoxetan-3-yl)-1H-pyrazol-3-yl)sulfonyl)acetamide], the IC50 is at most 5 µM.
